The structures appear in SMILES notation.

The subject of assay [1] is GIST882 cell line. In words: Cancer cell cytotoxicity assay (sulforhodamine B). Format: cell-based. The procedure: (§1) To validate the hypothesis that the designed c-kit/PDGFR tyrosine kinase inhibitors mediate GIST882 cell killing and PDGFR-mediated cell killing of pancreatic cancer cell lines (CFPAC-1, PANC-1 and MIA PaCa-2), an in vitro cytotoxicity assay was performed. The GIST882 cell line used in this study has a c-kit gain-of-function mutation (K642E). […] First the cells were cultured. GIST882 cells were provided by Dr. Jonathan A. Fletcher (Dana-Farber Cancer Institute, Boston, Mass.). PANC-1 and MIAPaCa-2 cells were provided by Dr. Daniel Von Hoff (Arizona Cancer Center, Tucson, Ariz.). […] All the cell lines were incubated in a humidified incubator at 37° C. with 5% CO2 atmosphere.
(§2) After incubation for 4 days at 37° C. in a humidified incubator, the cells were fixed with 10% Trichloroacetic acid solution (Catalog No. 490-10, Sigma). Subsequently, they were labeled with 0.04% Sulforhodamine B (S9012, Sigma) in 1% acetic acid. After multiple washes to remove excess dye, 100 μl of 50 mM Tris solution was added to each well in order to dissolve the dye. The absorbance of each well was read on a plate reader (Wallac Vector^2, PerkinElmer) at the wavelength of 570 nm. Data were expressed as the percentage of survival of control calculated from the absorbance corrected for background absorbance. The surviving percent of cells was determined by dividing the mean absorbance values of the […] by the mean absorbance values of the control and multiplying by 100.

Another assay deals with PANC-1 cells. The assay can be described thus: Cancer cell cytotoxicity assay (sulforhodamine B). Type of assay: cell-based. Conditions: Homo sapiens, 96 h; PANC-1, 4 days; read-out: IC50 PDGFR PANC-1. The procedure:
To validate the hypothesis that the designed c-kit/PDGFR tyrosine kinase inhibitors mediate GIST882 cell killing and PDGFR-mediated cell killing of pancreatic cancer cell lines (CFPAC-1, PANC-1 and MIA PaCa-2), an in vitro cytotoxicity assay was performed. The GIST882 cell line used in this study has a c-kit gain-of-function mutation (K642E). The assay utilized the Cell Titer 965 Non-Radioactive Cell Proliferation Assay (Promega Corp., Madison, Wis.). First the cells were cultured. GIST882 cells were provided by Dr. Jonathan A. Fletcher (Dana-Farber Cancer Institute, Boston, Mass.). PANC-1 and MIAPaCa-2 cells were provided by Dr. Daniel Von Hoff (Arizona Cancer Center, Tucson, Ariz.). GIST882 cells were cultured in RPMI 1640 medium (Cat #21870-076, Invitrogen Corporation) supplemented with 300 mg/L L-glutamine, 100 unit/ml penicillin, 100 μg/ml streptomycin and 15% fetal bovine serum. PANC-1 and MIAPaCa-2 cells were maintained in RPMI 1640 medium (cat #10-040, Mediatech, Inc.) supplemented with 100 unit/ml penicillin, 100 μg/ml streptomycin and 10% fetal bovine serum. All the cell lines were incubated in a humidified incubator at 37° C. with 5% CO2 atmosphere.
as §2, with “Cells were plated at a density of 2000 to 10000 cells per well, depending on their growth rate, in 0.1 mL medium on day 0 in 96-well Falcon microtiter plates (#3072, Becton-Dickinson Labware, Lincoln Park, N.J.). On day 1, 10 μL of serial dilutions of the individual compounds were added to the plates in replicates of 4. After incubation” for “After incubation”

Assay [2] concerns pancreatic cancer cell lines MIAPaCa-2 and PANC-1. In words: Cancer cell cytotoxicity assay, range over both pancreatic lines. Type of assay: cell-based. The note with it: potency order. The procedure: as §1
as §2, with “After multiple washes to remove excess dye, 100 μl of 50 mM Tris solution was added to each well in order to dissolve the dye.” left out

Assay [3] deals with GIST882 cell line. In words: GIST882 cell growth assay (Cell-Titer-Glo). Type of assay: cell-based. On the procedure: (§3) Briefly, cells are seeded into 96-well, tissue-culture treated, opaque white plates (Thermo Electron, Vantaa, Finland), at between 5000 and 7500 cells per well, depending on the speed of cell proliferation, in 100 μl of appropriate growth medium (determined by the ATCC). Cells are then exposed to the appropriate concentration of drug or an equal amount of DMSO (drug diluent) and allowed to grow in its presence for 96 hours. Following this, 100 μl of Cell-Titer-Glo reagent (Promega, Inc., Madison, Wis.) is added to each well. Plates are then shaken for 2 minutes at room temperature to allow for cell lysis and incubated for 10 minutes to stabilize the luminescent signal. Similar to the Kinase-Glo assay reagent, this reagent contains both luciferase enzyme and its substrate luciferin. Luciferase, activated by ATP in the cell lysate, catalyzes the conversion of luciferin to oxyluciferin, a reaction which produces light. The amount of light produced is proportionate to the amount of ATP in the cell lysate, which is itself proportional to cell number and gives an index of cellular proliferation.
as §3, with “Various compounds of the invention, including (IV-1-3) (also referred to as HPK16), (III-1-3) (also referred to as HPK56), (III-1-4) (also referred to as HPK57), (III-1-5) (also referred to as HPK59), and (II-2-7) (also referred to as HPK61) were tested for activity against GIST tumor cells using the GIST882 cell line. Briefly,” for “Briefly,”

The next assay concerns the target c-Kit (Homo sapiens, UniProt P10721). In words: Autophosphorylation assay with γ-32P-ATP. Type of assay: biochemical. The note with it: FIG. 28A. The procedure: Enzymes were incubated with the appropriate concentration of inhibitor and radiolabeled γ-^32P-ATP. After 30 minutes, the reaction mixtures were electrophoresed on an acrylamide gel and autophosphorylation, quantitated by the amount of radioactivity incorporated into the enzyme, was assayed.

Chain of c-Kit (P10721 26-976): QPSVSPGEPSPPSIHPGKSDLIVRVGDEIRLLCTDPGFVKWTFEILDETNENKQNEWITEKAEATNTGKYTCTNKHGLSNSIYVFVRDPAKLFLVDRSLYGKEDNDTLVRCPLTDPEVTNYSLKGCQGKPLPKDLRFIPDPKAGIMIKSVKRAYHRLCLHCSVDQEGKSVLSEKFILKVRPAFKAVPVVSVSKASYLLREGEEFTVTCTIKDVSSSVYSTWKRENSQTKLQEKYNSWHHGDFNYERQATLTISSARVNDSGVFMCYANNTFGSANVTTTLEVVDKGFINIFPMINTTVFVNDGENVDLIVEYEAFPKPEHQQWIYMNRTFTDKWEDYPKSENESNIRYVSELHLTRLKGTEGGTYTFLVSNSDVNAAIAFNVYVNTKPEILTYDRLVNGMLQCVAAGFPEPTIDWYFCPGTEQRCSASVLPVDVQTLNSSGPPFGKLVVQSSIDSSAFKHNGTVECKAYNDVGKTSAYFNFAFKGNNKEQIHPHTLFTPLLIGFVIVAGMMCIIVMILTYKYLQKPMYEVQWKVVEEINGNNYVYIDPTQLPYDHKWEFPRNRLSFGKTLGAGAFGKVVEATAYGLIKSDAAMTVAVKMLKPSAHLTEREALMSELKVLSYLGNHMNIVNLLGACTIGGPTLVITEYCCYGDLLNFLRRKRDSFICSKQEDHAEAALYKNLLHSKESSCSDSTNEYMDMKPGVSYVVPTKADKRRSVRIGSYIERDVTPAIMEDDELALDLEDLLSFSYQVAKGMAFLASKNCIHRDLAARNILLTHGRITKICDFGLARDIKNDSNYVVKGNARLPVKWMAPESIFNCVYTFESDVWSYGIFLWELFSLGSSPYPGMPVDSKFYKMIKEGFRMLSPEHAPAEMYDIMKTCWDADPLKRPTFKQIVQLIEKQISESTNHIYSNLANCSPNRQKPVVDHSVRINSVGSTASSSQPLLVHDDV

A word on the IC50: it is the concentration needed to halve the response being measured. For `COc1cc2[nH]c3ncnc(N4CCN(C(=S)NCc5ccc6c(c5)OCO6)CC4)c3c2cc1OC` [HPK61, 4-(6,7-Dimethoxy-9H-1,3,9-triaza-fluoren-4-yl)-piperazine-1-carbothioic acid (benzo[1,3]dioxol-5-ylmethyl)-amide], in the assay on GIST882 cell line [1] (GIST882, day 4), the “cells alive at day 4” value is 5%. The IC50 with GIST882 cell line [1] (Homo sapiens, 96 h, GIST882, 4 days, read-out: IC50 c-kit GIST882) is 450 nM; in the assay on PANC-1 cells it was 16 µM; in assay [2], 15.5 to 16 µM; in the assay with GIST882 cell line [3] (Homo sapiens, GIST882, 96 hours), 450 nM. For the same compound, the “inhibitory activity in GIST882 cell line (in words)” value in the assay on GIST882 cell line [3] (FIG. 29, 96 hours) is “highest inhibitory activity”. The “inhibition of c-Kit autophosphorylation (in words)” value at c-Kit was “dose-dependent”.

The values are drawn from patent publication US8552018B2, “Substituted tricyclic compounds as protein kinase inhibitors” (Arizona Board of Regents on behalf of the University of …, priority 2003, dated 2013).
